# Assay results published in patent US11026906B2 (priority 2016, dated 2021).
# Entries after “also recorded” stand apart in the source; their conditions may differ. Like-named read-outs stand apart in the source and are kept apart here.
# Columns and labels:
# [1] = in vivo; cited from earlier work
# [2] = Stability of the compositions (storage, light, heating under vacuum)
# [3] = for Area under the curve (AUC0-∞), Mean / Half-life (T1/2), Mean / Oral Bioavailability, Mean / Rate of elimination (K), Mean / Maximum serum concentration (Cmax), Mean: 10 subjects; for Maximum serum concentration (Cmax), Mean: fasted
# From the text: The study was approved by an Institutional Review Board. […] Each provided informed consent to participate in the study.
# (§1) On the day of dose administration, the subjects arrived at the clinic fasted. Their qualifications for enrollment were reviewed to ensure compliance. Immediately prior to administration of the test article, an indwelling venous catheter was placed and a blood sample was withdrawn into a trace metal-free tube (the t=0 sample). […] After drinking the test article solution, fasting continued for 2 hours. During the day, however, subjects were provided usual and customary meals. Potential adverse events were monitored.
# Each blood sample was stored appropriately until all samples had been collected for the day. Then the blood samples were centrifuged to separate the serum, and each serum sample was transferred into two trace metal-free vials. The vials were shipped to an independent analytical laboratory for serum strontium analyses.
# as §1, with “One week later, on the day” for “On the day”, “administration, the same subjects arrived” for “administration, the subjects arrived”
# [4] = system: subjects with femoral neck BMD less than 0.600 g/cm^2; assay: Double-blind clinical study, non-vertebral fractures over 3 year follow-up (expected results); conditions: 200 mg strontium daily vs placebo
# From the text: In a double-blind clinical study, 80 subjects are divided into two groups (n=40). The control group receives a daily supplement containing 1.8 g of sodium L-lactate (placebo). […] All non-vertebral fractures will be recorded with the exception of the coccyx, skull, jaw, face, phalanx (fingers and toes) and ankle, since these latter are not regarded as being related to osteoporosis.
# [5] = system: subject with osteonecrosis of the jaw and osteoarthritis; assay: Efficacy study in one subject: daily oral strontium L-lactate; format: in vivo, human
# Protocol: Likewise, today there are no effective treatments for osteonecrosis of the jaw caused by lengthy use of bone resorption inhibitors (anti-resorptives). […] The test subject experienced deterioration of the jawbone sufficient to loosen their teeth and cause pain when chewing. They received a 200 mg dose of strontium as the L-lactate each day, taken separately from food. […] Over a 3-month period, the subject receiving this treatment experienced a restoration of the jawbone sufficient to set the teeth more firmly and reduce the pain associated with chewing. […] The benefits were so remarkable that the subject continued treatment for at least 8 months, with continuing resolution of the bone and cartilage defects.
# A subject suffered from latent osteonecrosis of the jaw as a result of several years of alendronate treatment for osteoporosis. In addition to loose teeth and jaw pain during chewing due to the osteonecrosis, they suffered from osteoarthritis. Their dentist advised them that the necrosis was so serious they would lose several teeth and might have to change from a normal diet to a soft-food diet. Their arthritis was so severe that they had to give up crocheting and knitting, hobbies they had enjoyed for many years. […] They requested access to strontium L-lactate of the present invention. […] Their treatment continued for 8 months with similar improvements.
# [6] = daily doses of 0.3-0.6 grams; cited from earlier work
# [7] = system: men and women having low bone mass; conditions: cited from earlier work
# [8] = about 200 mg strontium per day orally, after 3 months
structure (smiles),measurement,setting,value
C[C@@H](O)C(=O)O [D-lactate],blood concentration causing acidosis and encephalopathies,[1],≥ 3000 µM
C[C@H](O)C(=O)[O-].C[C@H](O)C(=O)[O-].O.O.O.[Sr+2] [strontium L-lactate trihydrate],stability on exposure to light,[2],stable
same,stability during storage,[2]; 25° C./60% relative humidity,stable
same,racemization on heating,"[2]; solid heated under vacuum, about 100° C. to about 130° C.",No racemization
C[C@H](O)C(=O)[O-].C[C@H](O)C(=O)[O-].[Sr+2] [strontium L-lactate],average serum concentration of strontium compared with strontium ranelate,"[3]; 170 mg dose of strontium as L-lactate vs 680 mg dose of strontium as ranelate (U.S. Pat. No. 7,595,342)",approximately equaled the serum concentration of strontium achieved by ingesting a 680 mg dose of strontium as the ranelate; also recorded: approximately equal to the serum concentrations of strontium provided by 680 mg of water-insoluble strontium ranelate
same,time at which average serum strontium concentration reached a maximum,[3]; after ingesting a solution of strontium L-lactate in water,about 3 hr
same,adverse effects,"[3]; after ingesting any of three escalating doses (170, 340, 680 mg strontium)",no adverse effects
same,"Area under the curve (AUC0-∞), Mean",[3]; oral dose 170 mg strontium,47.8 mg Sr/L · h
same,"Half-life (T1/2), Mean",[3]; oral dose 170 mg strontium,12.3
same,"Oral Bioavailability, Mean",[3]; oral dose 170 mg strontium,0.94
same,"Rate of elimination (K), Mean",[3]; oral dose 170 mg strontium,0.06 h⁻¹
same,"Area under the curve (AUC0-∞), Mean",[3]; oral dose 340 mg strontium,115.6 mg Sr/L · h
same,"Half-life (T1/2), Mean",[3]; oral dose 340 mg strontium,12.1
same,"Oral Bioavailability, Mean",[3]; oral dose 340 mg strontium,0.93
same,"Rate of elimination (K), Mean",[3]; oral dose 340 mg strontium,0.06 h⁻¹
same,"Area under the curve (AUC0-∞), Mean",[3]; oral dose 680 mg strontium,185.0 mg Sr/L · h
same,"Half-life (T1/2), Mean",[3]; oral dose 680 mg strontium,14.0
same,"Oral Bioavailability, Mean",[3]; oral dose 680 mg strontium,0.94
same,"Rate of elimination (K), Mean",[3]; oral dose 680 mg strontium,0.05 h⁻¹
same,"Maximum serum concentration (Cmax), Mean",[3]; single oral dose 340 mg strontium as strontium L-lactate in 100 mL water,6.3 mg Sr/L
same,"Maximum serum concentration (Cmax), Mean",[3]; single oral dose 680 mg strontium as strontium L-lactate in 100 mL water,9.3 mg Sr/L
same,non-vertebral fractures,[4],significant reduction in all non-vertebral fractures
same,side effects,"[5]; 200 mg strontium per day, at least 8 months",no side effects
same,"osteoarthritis: stiffness, pain, flexibility of hands",[5]; [8],increased flexibility of osteoarthritic hands and fingers; also recorded: the stiffness and pain of their osteoarthritis had significantly abated
same,osteonecrosis of the jaw: teeth setting and pain when chewing,[5]; [8],reduced the injury and pain associated with osteonecrosis of the jaw; also recorded: their teeth were more set in their jawbone and that they experienced less pain when chewing
CC(O)C(=O)[O-].CC(O)C(=O)[O-].[Sr+2] (centres unmarked) [strontium lactate],albumin in the urine,[6],decrease albumin in the urine
N#Cc1c(N(CC(=O)[O-])CC(=O)[O-])sc(C(=O)[O-])c1CC(=O)[O-].[Sr+2].[Sr+2] [strontium ranelate],incidence of fractures,"[7]; daily dose of 2 grams (680 mg strontium), almost a decade of clinical use",significantly reduced incidence of fractures
same,side effects of therapeutic doses of the strontium ion,[7]; human exposure,"does not cause gastric irritation, esophageal cancer, colon cancer, or osteonecrosis of the jaw"
O=C([O-])CCC(=O)[O-].[Sr+2] [strontium succinate],benefit in treating osteoporosis,[7]; daily dose of 1.7 grams (680 mg strontium),highly beneficial in treating osteoporosis
